Data published in the NIST ThermoML archive (doi:10.1016/j.jct.2017.03.006).

Assay: xn = mol fraction of the nth substance listed
Settings: 333.15 K, Liquid, Vibrating tube method

Cc1ccc(C)c(C)c1 [1,2,4-trimethylbenzene] + CCC(C)O
mass density [kg/m3]
Settings	x2 = 0	x2 = 0.1	x2 = 0.1989	x2 = 0.3011	x2 = 0.4002	x2 = 0.5001	x2 = 0.5997	x2 = 0.6999	x2 = 0.7999	x2 = 0.9
40000 kPa	–	–	–	–	–	–	–	–	819.7	812.1
50000 kPa	877.4	871.2	865.3	859.2	853.2	847.6	840.5	833.4	826.3	818.7
60000 kPa	883	876.9	871.1	865.1	859.1	853.7	846.6	839.5	832.5	824.9
70000 kPa	888.2	882.5	876.6	870.6	864.8	859.3	852.3	845.3	838.4	830.7
80000 kPa	893.2	887.6	881.9	875.9	870.1	864.7	857.8	850.8	843.7	836.2
90000 kPa	898	892.5	886.9	881	875.2	869.8	862.9	856	849	841.4
100000 kPa	902.5	897.2	891.7	885.8	880	874.7	867.9	860.9	853.9	846.4
110000 kPa	906.9	901.8	896.2	890.5	884.7	879.4	872.6	865.7	858.7	851.2
120000 kPa	911.1	906.1	900.7	894.8	889.1	883.9	877.1	870.2	863.2	855.7
130000 kPa	915.1	910.3	904.9	899.1	893.4	888.2	881.5	874.5	867.5	860.1
140000 kPa	919	914.3	909.1	903	897.5	892.2	885.9	878.5	871.5	864
